Patent US4291164A, “Cephalosporin analogs and methods for production thereof” (Kyowa Hakko Kogyo Co., Ltd., priority 1978, dated 1981)
In brackets after ≈: the same amount, converted by molar mass. Where a name gives a salt, the structure may show the parent alone.

Experiments:
Format in all cases: cell-based
[1] = test system: Staphylococcus epidermidis; assay: Antibacterial activity, Heart Infusion Agar Dilution Method, Staphylococcus epidermidis; conditions: for MIC: pH 7.2, read-out: Minimum Inhibitory Concentration
Experimental: (§1) The antibacterial activity of the compounds obtained in the above Examples 24, 26, 28, 30, 32, 34, 36, 38, 40 and 41 are determined by Heart Infusion Agar Dilution Method (pH 7.2). Cefazolin is used as a reference.

Escherichia coli NIHJC2 = assay: Antibacterial activity, Heart Infusion Agar Dilution Method, Escherichia coli NIHJC2; conditions: Escherichia coli NIHJC2, Heart Infusion Agar Dilution, pH 7.2; for MIC: read-out: Minimum Inhibitory Concentration
Experimental: as §1

[2] = test system: Staphylococcus aureus 209p; assay: Antibacterial activity, Heart Infusion Agar Dilution Method, Staphylococcus aureus 209p; conditions: for MIC: pH 7.2, read-out: Minimum Inhibitory Concentration
Experimental: as §1

[3] = test system: Klebsiella pneumoniae Y60; assay: Antibacterial activity, Heart Infusion Agar Dilution Method, Klebsiella pneumoniae Y60; conditions: for MIC: pH 7.2, read-out: Minimum Inhibitory Concentration
[4] = test system: Staphylococcus aureus Smith; assay: Antibacterial activity, Heart Infusion Agar Dilution Method, Staphylococcus aureus Smith; conditions: for MIC: pH 7.2, read-out: Minimum Inhibitory Concentration
Experimental: as §1

Proteus morganii KY4298 = assay: Antibacterial activity, Heart Infusion Agar Dilution Method, Proteus morganii KY4298; conditions: for MIC: Morganella morganii, pH 7.2, read-out: Minimum Inhibitory Concentration; for Minimum Inhibitory Concentration: pH 7.2
Experimental: as §1

Proteus rettgeri KY4289 = assay: Antibacterial activity, Heart Infusion Agar Dilution Method, Proteus rettgeri KY4289; conditions: for MIC: Providencia rettgeri, pH 7.2, read-out: Minimum Inhibitory Concentration; for Minimum Inhibitory Concentration: pH 7.2
Experimental: as §1

Serratia marcescens T55 = assay: Antibacterial activity, Heart Infusion Agar Dilution Method, Serratia marcescens T55; conditions: for MIC: pH 7.2, read-out: Minimum Inhibitory Concentration; for Minimum Inhibitory Concentration: pH 7.2
Escherichia coli Juhl = assay: Antibacterial activity, Heart Infusion Agar Dilution Method, Escherichia coli Juhl; conditions: Escherichia coli Juhl, Heart Infusion Agar Dilution, pH 7.2; for MIC: read-out: Minimum Inhibitory Concentration
Proteus mirabilis 1287 = assay: Antibacterial activity, Heart Infusion Agar Dilution Method, Proteus mirabilis 1287; conditions: for MIC: pH 7.2, read-out: Minimum Inhibitory Concentration; for Minimum Inhibitory Concentration: pH 7.2
Experimental: as §1

[5] = test system: Pseudomonas aeruginosa 145; assay: Antibacterial activity, Heart Infusion Agar Dilution Method, Pseudomonas aeruginosa 145; conditions: for MIC: Pseudomonas aeruginosa, 145, pH 7.2, read-out: Minimum Inhibitory Concentration
Experimental: as §1

[6] = test system: Klebsiella pneumoniae 8045; assay: Antibacterial activity, Heart Infusion Agar Dilution Method, Klebsiella pneumoniae 8045; conditions: for MIC: pH 7.2, read-out: Minimum Inhibitory Concentration; for Minimum Inhibitory Concentration: pH 7.2
Experimental: as §1

Serratia marcescens T26 = assay: Antibacterial activity, Heart Infusion Agar Dilution Method, Serratia marcescens T26; conditions: for MIC: pH 7.2, read-out: Minimum Inhibitory Concentration
Pseudomonas putida F264 = assay: Antibacterial activity, Heart Infusion Agar Dilution Method, Pseudomonas putida F264; conditions: for MIC: pH 7.2, read-out: Minimum Inhibitory Concentration
Proteus vulgaris 6897 = assay: Antibacterial activity, Heart Infusion Agar Dilution Method, Proteus vulgaris 6897; conditions: for MIC: pH 7.2, read-out: Minimum Inhibitory Concentration; for Minimum Inhibitory Concentration: pH 7.2
Experimental: as §1

SMILES	MIC [1] [µg/mL]	MIC (Escherichia coli NIHJC2) [µg/mL]	MIC [2] [µg/mL]	MIC [3] [µg/mL]	MIC [4] [µg/mL]	MIC (Proteus morganii KY4298) [µg/mL]	MIC (Proteus rettgeri KY4289) [µg/mL]	MIC (Serratia marcescens T55) [µg/mL]	MIC (Escherichia coli Juhl) [µg/mL]	MIC (Proteus mirabilis 1287) [µg/mL]	MIC [5] [µg/mL]	MIC [6] [µg/mL]	MIC (Serratia marcescens T26) [µg/mL]	MIC (Pseudomonas putida F264) [µg/mL]	MIC (Proteus vulgaris 6897) [µg/mL]	also measured
N[C@@H](C(=O)N[C@H]1C(=O)N2C(C(=O)O)=CCC[C@H]12)c1ccccc1 (racemic) [Example 26, (±)-cis-7-[(R)-2-phenyl-2-aminoacetamido]-1-azabicyclo-[4,2,0]oct-2-en-8-on-2-carboxylic acid]	6.25 (≈ 19.8 µM)	12.5 (≈ 39.6 µM)	0.4 (≈ 1.27 µM)	12.5 (≈ 39.6 µM)	12.5 (≈ 39.6 µM)	100 (≈ 317 µM)	50 (≈ 159 µM)	25 (≈ 79.3 µM)	12.5 (≈ 39.6 µM)	25 (≈ 79.3 µM)	> 100	3.12 (≈ 9.89 µM)	> 100	> 100	25 (≈ 79.3 µM)	
CON=C(C(=O)NC1C(=O)N2C(C(=O)O)=CC(C)CC12)c1csc(N)n1 (racemic) [Example 36, (±)-cis-7β-[2-(2-amino-4-thiazolyl)-2-methoxyiminoacetamido]-4β-methyl-2-carboxy-1-azabicyclo[4,2,0]oct-2-en-8-one]																Minimum Inhibitory Concentration ([1]; pH 7.2): > 100 µg/mL; Minimum Inhibitory Concentration (Escherichia coli NIHJC2): 0.2 µg/mL; Minimum Inhibitory Concentration ([2]; pH 7.2): 50 µg/mL; Minimum Inhibitory Concentration ([4]; pH 7.2): 100 µg/mL; Minimum Inhibitory Concentration (Proteus morganii KY4298): 0.78 µg/mL; Minimum Inhibitory Concentration (Proteus rettgeri KY4289): 0.4 µg/mL; Minimum Inhibitory Concentration (Serratia marcescens T55): 3.12 µg/mL; Minimum Inhibitory Concentration (Proteus mirabilis 1287): 0.78 µg/mL; Minimum Inhibitory Concentration ([5]; Pseudomonas aeruginosa 145, Heart Infusion Agar Dilution, pH 7.2): > 100 µg/mL; Minimum Inhibitory Concentration [6]: 0.2 µg/mL; Minimum Inhibitory Concentration (Serratia marcescens T26; pH 7.2): 6.25 µg/mL; Minimum Inhibitory Concentration (Pseudomonas putida F264; pH 7.2): 0.4 µg/mL; Minimum Inhibitory Concentration (Proteus vulgaris 6897): 0.78 µg/mL
CO/N=C(/C(=O)N[C@@H]1C(=O)N2C(C(=O)O)=CCC[C@H]12)c1csc(N)n1 (relative stereo) [Example 24, (±)-cis-7-[2-(2-amino-4-thiazolyl)-2-anti-methoxyimino-acetamido]-1-azabicyclo[4,2,0]oct-2-en-8-one-2-carboxylic acid]	100 (≈ 274 µM)	0.78 (≈ 2.13 µM)	100 (≈ 274 µM)	1.56 (≈ 4.27 µM)	> 100	0.78 (≈ 2.13 µM)	0.1 (≈ 0.274 µM)	1.56 (≈ 4.27 µM)	1.56 (≈ 4.27 µM)	0.78 (≈ 2.13 µM)	> 100	0.2 (≈ 0.547 µM)	3.12 (≈ 8.54 µM)	0.78 (≈ 2.13 µM)	0.4 (≈ 1.09 µM)	
C[C@H]1C=C(C(=O)O)N2C(=O)[C@@H](NC(=O)[C@H](N)c3ccccc3)[C@H]2C1 (relative stereo) [Example 30, trifluoroacetate of (±)-cis-7β-[(R)-2-phenyl-2-aminoacetamido]-4β-methyl-2-carboxy-1-azabicyclo[4,2,0]oct-2-en-8-one]	3.12	50	0.4	100	1.56	> 100	> 100	> 100	25	> 100	> 100	6.25	> 100	> 100	> 100	
C[C@@H]1C=C(C(=O)O)N2C(=O)[C@@H](NC(=O)[C@H](N)c3ccccc3)[C@H]2C1 (relative stereo) [Example 32, (±)-cis-7β-[(R)-2-phenyl-2-aminoacetamido]-4α-methyl-2-carboxy-1-azabicyclo[4,2,0]oct-2-en-8-one]	6.25 (≈ 19 µM)	12.5 (≈ 38 µM)	0.78 (≈ 2.37 µM)	> 100	6.25 (≈ 19 µM)	100 (≈ 304 µM)	> 100	25 (≈ 75.9 µM)	12.5 (≈ 38 µM)	50 (≈ 152 µM)	> 100	3.12 (≈ 9.47 µM)	> 100	100 (≈ 304 µM)	50 (≈ 152 µM)	
CO/N=C(/C(=O)N[C@@H]1C(=O)N2C(C(=O)O)=C[C@@H](C)C[C@H]12)c1csc(N)n1 (relative stereo) [Example 34, (±)-cis-7β[2-(2-amino-4-thiazolyl)-2-anti-methoxyiminoacetamido]-4α-methyl-2-carboxy-1-azabicyclo[4,2,0]oct-2-en-8-one]	25 (≈ 65.9 µM)	0.4 (≈ 1.05 µM)	12.5 (≈ 32.9 µM)		25 (≈ 65.9 µM)	0.78 (≈ 2.06 µM)	0.1 (≈ 0.264 µM)		0.78 (≈ 2.06 µM)	0.2 (≈ 0.527 µM)	> 100	0.1 (≈ 0.264 µM)	25 (≈ 65.9 µM)		< 0.05	
CO/N=C(\C(=O)N[C@@H]1C(=O)N2C(C(=O)O)=C[C@@H](C)C[C@H]12)c1csc(N)n1 (relative stereo) [Example 38, (±)-cis-7β-[2-(2-amino-4-thiazolyl)-2-syn-methoxyiminoacetamido]-4α-methyl-1-azabicyclo[4,2,0]oct-2-en-8-one-2-carboxylic acid]	12.5 (≈ 32.9 µM)	≤ 0.05	12.5 (≈ 32.9 µM)	≤ 0.05	12.5 (≈ 32.9 µM)	≤ 0.05	≤ 0.05	0.1 (≈ 0.264 µM)	≤ 0.05	≤ 0.05	> 100	≤ 0.05		≤ 0.05	≤ 0.05	
CO/N=C(\C(=O)N[C@@H]1C(=O)N2C(C(=O)O)=CCC[C@H]12)c1csc(N)n1 (relative stereo) [Example 40, (±)-cis-7-[2-(2-amino-4-thiazolyl)-2-syn-methoxyiminoacetamido]-1-azabicyclo[4,2,0]oct-2-en-8-on-2-carboxylic acid]	12.5 (≈ 34.2 µM)	≤ 0.05	12.5 (≈ 34.2 µM)	≤ 0.05	12.5 (≈ 34.2 µM)	≤ 0.05	≤ 0.05	≤ 0.05	≤ 0.05	≤ 0.05	50 (≈ 137 µM)	≤ 0.05	0.78 (≈ 2.13 µM)	0.1 (≈ 0.274 µM)	≤ 0.05	
CC(=O)O[C@@H]1C=C(C(=O)O)N2C(=O)[C@@H](NC(=O)Cc3cccs3)[C@H]2C1 (relative stereo) [Example 41, (±)-cis-7β-(2-thienylacetamido)4α-acetoxy-1-azabicyclo[4,2,0]oct-2-en-8-on-2-carboxylic acid]	12.5 (≈ 34.3 µM)	100 (≈ 274 µM)	3.12 (≈ 8.56 µM)	25 (≈ 68.6 µM)	25 (≈ 68.6 µM)	> 100	> 100	> 100	100 (≈ 274 µM)	> 100	> 100	> 100	> 100	> 100	> 100	
N[C@@H](C(=O)NC1C(=O)N2C(C(=O)O)=CCCC12)c1ccccc1 (single isomer, unassigned) [Example 26 A isomer]																Minimum Inhibitory Concentration (Escherichia coli NIHJC2): 50 µg/mL; Minimum Inhibitory Concentration ([3]; pH 7.2): 50 µg/mL; Minimum Inhibitory Concentration (Proteus morganii KY4298): 50 µg/mL; Minimum Inhibitory Concentration (Proteus rettgeri KY4289): 6.25 µg/mL; Minimum Inhibitory Concentration (Serratia marcescens T55): 100 µg/mL; Minimum Inhibitory Concentration (Escherichia coli Juhl): 100 µg/mL; Minimum Inhibitory Concentration (Proteus mirabilis 1287): 25 µg/mL; Minimum Inhibitory Concentration [6]: 50 µg/mL; Minimum Inhibitory Concentration (Proteus vulgaris 6897): 25 µg/mL
